Experimental data: US12290513B2, “Therapeutic methods and compositions for treating movement disorders” (Vima Therapeutics, Inc., priority 2023, dated 2025)

Tests used:
tear production = assay: THP-induced dry eye in dogs: tear production; assay type: in vivo, Beagles; details: oral, 2 mpk alone
[1] = test system: guinea pig ileum myenteric plexus-longitudinal muscle (MPLM) strips; assay: EFS-induced contractions in guinea pig ileum MPLM strips
[2] = Whole blood stability, human
Description: (§1) Procedures for blood Stability. • A. 398 μL of blood from each species was added to an incubation plate, which was pre-warmed at 37C for 15 minutes. • B. After the pre-incubation, 2 μL of working solution (test compounds or control compounds) was spiked to 398 μL of blood to reach a final concentration of 1 μM for test compounds and 5 μM for control compounds. The final concentration of organic solvents is 0.5%. The assays were performed in duplicate. • C. The reaction samples were incubated at 37C. • D. Aliquots of 50 μL were taken from the reaction samples at 0, 15, 30, 60 and 120 minutes. The reaction was stopped by the addition of 50 μL ultrapure water and 400 μL cold acetonitrile. • E. All samples were vortexed for 10 minutes, followed by centrifugation at 3,220 g for 40 minutes to precipitate proteins. 100 μL of the supernatant was then transferred to a new plate. The supernatant was diluted with ultrapure water as needed for detection by LC-MS/MS. Sample Analysis
(§2) Samples were analyzed by LC-MS/MS to measure the concentration of the test compounds.
(§3) All calculations were carried out using Microsoft Excel and according to standard analysis methods that are known in the art.

[3] = Whole blood stability, dog
Description: as §1, §2, §3

[4] = Whole blood stability, rat; details: rat whole blood, 37C
Description: as §1, §2, §3

CYP2E1 = CYP2E1 (Homo sapiens, UniProt P05181); assay: Incubation with recombinant CYP2E1
Chain of CYP2E1 (P05181 whole entry): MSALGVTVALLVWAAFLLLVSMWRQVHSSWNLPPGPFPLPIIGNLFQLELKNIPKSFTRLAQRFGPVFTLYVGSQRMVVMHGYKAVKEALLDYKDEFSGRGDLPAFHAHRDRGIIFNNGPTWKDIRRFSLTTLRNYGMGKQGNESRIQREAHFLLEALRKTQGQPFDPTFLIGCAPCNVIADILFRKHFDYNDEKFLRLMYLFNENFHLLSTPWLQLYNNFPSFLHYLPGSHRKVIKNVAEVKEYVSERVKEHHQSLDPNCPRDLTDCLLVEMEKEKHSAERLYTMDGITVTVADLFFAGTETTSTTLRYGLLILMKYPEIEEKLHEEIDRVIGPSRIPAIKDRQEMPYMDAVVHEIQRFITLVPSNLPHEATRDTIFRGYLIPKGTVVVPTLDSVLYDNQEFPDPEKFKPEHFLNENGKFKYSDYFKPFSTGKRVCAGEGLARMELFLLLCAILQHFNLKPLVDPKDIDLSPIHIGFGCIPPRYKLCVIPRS

[5] = Description: The resulting metabolites were analyzed by liquid chromatography-mass spectrometry, and metabolite peaks were detected and measured.
CYP3A5 = CYP3A5 (Homo sapiens, UniProt P20815); assay: Incubation with recombinant CYP3A5
Chain of CYP3A5 (P20815 whole entry): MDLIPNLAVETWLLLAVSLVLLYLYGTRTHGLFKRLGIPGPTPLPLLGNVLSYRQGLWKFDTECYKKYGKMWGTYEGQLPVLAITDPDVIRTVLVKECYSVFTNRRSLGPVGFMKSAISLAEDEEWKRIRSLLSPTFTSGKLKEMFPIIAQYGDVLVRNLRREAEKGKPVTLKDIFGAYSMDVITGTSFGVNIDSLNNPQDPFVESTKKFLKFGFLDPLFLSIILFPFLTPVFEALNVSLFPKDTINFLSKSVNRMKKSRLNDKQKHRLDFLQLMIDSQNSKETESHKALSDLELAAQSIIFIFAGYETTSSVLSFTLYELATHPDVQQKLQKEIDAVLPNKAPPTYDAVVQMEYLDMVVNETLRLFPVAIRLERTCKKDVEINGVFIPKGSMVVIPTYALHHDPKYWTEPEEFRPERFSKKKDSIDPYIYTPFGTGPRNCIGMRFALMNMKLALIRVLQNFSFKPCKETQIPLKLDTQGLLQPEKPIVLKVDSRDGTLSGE

CYP2C19 = CYP2C19 (Homo sapiens, UniProt P33261); assay: Incubation with recombinant CYP2C19
Chain of CYP2C19 (P33261 whole entry): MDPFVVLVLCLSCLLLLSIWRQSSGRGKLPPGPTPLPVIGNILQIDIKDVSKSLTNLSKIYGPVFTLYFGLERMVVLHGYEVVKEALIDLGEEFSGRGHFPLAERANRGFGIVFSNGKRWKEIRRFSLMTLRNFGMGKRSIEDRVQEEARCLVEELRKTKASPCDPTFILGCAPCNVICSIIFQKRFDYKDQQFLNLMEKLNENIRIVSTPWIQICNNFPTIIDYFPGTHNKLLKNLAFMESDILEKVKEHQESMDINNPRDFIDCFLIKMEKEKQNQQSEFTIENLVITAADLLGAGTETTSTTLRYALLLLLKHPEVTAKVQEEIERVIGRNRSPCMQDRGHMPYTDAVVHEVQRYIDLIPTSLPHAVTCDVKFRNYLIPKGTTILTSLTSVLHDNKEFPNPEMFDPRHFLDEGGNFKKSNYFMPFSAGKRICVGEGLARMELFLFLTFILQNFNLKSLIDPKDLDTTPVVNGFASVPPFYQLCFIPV

CYP2C8 = biological target: T1, CYP2C8 (Homo sapiens, UniProt P10632); assay: Incubation with recombinant CYP2C8
T1 sequence (P10632 1-490): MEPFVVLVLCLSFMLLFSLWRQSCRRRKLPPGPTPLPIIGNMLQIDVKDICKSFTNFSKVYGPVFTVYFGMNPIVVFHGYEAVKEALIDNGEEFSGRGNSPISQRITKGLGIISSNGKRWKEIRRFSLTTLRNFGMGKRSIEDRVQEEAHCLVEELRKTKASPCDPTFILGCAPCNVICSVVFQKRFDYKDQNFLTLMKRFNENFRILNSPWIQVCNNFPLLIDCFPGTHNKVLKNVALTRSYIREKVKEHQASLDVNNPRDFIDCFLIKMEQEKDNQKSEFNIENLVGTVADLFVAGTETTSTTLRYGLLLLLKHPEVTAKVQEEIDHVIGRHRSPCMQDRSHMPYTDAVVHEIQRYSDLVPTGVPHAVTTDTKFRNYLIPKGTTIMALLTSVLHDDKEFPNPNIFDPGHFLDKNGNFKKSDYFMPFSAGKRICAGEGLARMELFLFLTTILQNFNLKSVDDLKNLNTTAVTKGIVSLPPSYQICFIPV

CYP2A6 = biological target: T2, CYP2A6 (Homo sapiens, UniProt P11509); assay: Incubation with recombinant CYP2A6
T2 sequence (P11509 1-494): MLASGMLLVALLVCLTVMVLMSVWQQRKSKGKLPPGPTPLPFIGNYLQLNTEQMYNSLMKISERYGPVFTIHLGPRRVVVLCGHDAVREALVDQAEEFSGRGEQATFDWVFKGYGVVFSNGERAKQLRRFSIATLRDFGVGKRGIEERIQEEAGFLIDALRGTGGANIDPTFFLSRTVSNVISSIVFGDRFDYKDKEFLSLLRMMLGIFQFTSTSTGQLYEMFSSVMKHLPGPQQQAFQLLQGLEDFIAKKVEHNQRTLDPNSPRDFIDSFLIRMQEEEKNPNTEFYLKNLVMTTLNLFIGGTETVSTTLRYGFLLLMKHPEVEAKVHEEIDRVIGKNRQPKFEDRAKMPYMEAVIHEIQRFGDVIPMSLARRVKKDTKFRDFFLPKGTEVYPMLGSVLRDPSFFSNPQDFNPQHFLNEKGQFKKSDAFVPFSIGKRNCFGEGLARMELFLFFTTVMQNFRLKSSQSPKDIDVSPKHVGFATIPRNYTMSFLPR

[6] = test system: haloperidol-induced catalepsy; assay: Haloperidol-induced catalepsy (bar test); assay type: in vivo, Sprague Dawley rats; details: rats, haloperidol 1 mg/kg sc, Rac-THP 10, 20, 30 mg/kg, R-THP or S-THP 5, 10, 15 mg/kg ip
Description: Animals: Adult male Sprague Dawley rats (230-235 g) from Envigo were used in this study. Upon receipt, rats were group housed in ventilated cages and acclimated for one week prior to testing.
The front paws of a rat were placed then on a horizontal metal bar raised 6″ above a Plexiglas platform. Each rat underwent 3 trials of 60 seconds each. The test ended when the animal's front paws return to the platform or after 60 seconds. Rats were tested at 30 and 60 minutes after treatment.
Data were analyzed by one-way analysis of variance (ANOVA) followed by Tukey's post-hoc comparisons, where appropriate. Data are represented as mean and standard error to the mean (SEM).

CYP2C9 = CYP2C9 (Homo sapiens, UniProt P11712); assay: Incubation with recombinant CYP2C9
Chain of CYP2C9 (P11712 whole entry): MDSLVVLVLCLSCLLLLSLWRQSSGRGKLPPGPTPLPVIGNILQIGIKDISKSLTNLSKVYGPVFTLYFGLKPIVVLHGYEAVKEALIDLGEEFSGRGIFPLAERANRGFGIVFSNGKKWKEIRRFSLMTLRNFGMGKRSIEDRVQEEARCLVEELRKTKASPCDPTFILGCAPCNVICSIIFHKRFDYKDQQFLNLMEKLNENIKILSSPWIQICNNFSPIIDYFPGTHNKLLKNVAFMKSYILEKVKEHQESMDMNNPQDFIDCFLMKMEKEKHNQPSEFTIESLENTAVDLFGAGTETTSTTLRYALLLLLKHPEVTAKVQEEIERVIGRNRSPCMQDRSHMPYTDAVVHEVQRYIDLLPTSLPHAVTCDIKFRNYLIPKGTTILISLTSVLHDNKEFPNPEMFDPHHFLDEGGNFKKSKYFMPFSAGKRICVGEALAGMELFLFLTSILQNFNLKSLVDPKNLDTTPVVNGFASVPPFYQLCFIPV

CYP1A2 = biological target: T3, CYP1A2 (Homo sapiens, UniProt P05177); assay: Incubation with recombinant CYP1A2
T3 sequence (P05177 1-516): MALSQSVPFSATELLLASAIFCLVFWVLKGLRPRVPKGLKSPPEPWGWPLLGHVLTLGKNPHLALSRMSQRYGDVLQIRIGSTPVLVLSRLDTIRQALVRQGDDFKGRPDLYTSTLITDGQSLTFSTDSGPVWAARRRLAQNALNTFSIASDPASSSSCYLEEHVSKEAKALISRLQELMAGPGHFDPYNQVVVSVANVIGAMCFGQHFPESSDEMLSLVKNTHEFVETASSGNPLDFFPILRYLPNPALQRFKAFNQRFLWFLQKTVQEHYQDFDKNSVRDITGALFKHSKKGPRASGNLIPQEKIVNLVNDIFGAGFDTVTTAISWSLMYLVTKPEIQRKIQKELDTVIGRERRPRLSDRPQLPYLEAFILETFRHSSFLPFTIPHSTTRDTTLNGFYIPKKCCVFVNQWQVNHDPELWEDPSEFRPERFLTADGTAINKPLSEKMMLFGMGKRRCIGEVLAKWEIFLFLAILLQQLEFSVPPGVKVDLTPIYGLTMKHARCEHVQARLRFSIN

CYP2B6 = biological target: T4, CYP2B6 (Homo sapiens, UniProt P20813); assay: Incubation with recombinant CYP2B6
T4 sequence (P20813 1-491): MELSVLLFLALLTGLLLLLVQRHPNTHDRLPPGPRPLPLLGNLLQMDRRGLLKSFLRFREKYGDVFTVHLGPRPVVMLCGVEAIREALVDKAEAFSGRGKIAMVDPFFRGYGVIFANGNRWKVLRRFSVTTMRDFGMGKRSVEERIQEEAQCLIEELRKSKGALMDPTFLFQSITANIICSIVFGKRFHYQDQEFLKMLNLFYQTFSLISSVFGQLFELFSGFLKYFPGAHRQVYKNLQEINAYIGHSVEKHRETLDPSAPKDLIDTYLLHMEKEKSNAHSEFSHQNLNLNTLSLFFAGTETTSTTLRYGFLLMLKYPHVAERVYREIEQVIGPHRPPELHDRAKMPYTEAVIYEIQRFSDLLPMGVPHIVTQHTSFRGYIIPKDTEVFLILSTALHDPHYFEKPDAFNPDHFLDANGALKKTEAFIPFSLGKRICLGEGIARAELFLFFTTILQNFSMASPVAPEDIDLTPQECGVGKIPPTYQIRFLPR

CYP3A4 = CYP3A4 (Homo sapiens, UniProt P08684); assay: Incubation with recombinant CYP3A4
Chain of CYP3A4 (P08684 whole entry): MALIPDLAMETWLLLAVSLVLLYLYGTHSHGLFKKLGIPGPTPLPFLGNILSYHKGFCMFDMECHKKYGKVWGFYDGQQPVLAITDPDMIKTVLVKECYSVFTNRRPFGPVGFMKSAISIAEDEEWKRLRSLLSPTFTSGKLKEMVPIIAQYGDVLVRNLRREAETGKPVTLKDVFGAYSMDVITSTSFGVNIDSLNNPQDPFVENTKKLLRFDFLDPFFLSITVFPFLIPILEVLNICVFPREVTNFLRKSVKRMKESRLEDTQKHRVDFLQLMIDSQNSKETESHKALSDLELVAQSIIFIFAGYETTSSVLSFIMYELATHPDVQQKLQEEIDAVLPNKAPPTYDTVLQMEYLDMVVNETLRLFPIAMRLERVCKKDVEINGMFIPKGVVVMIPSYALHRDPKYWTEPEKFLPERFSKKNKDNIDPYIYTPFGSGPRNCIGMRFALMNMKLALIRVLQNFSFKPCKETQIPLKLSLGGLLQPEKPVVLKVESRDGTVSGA

CYP2D6 = CYP2D6 (Homo sapiens, UniProt P10635); assay: Incubation with recombinant CYP2D6
Chain of CYP2D6 (P10635 whole entry): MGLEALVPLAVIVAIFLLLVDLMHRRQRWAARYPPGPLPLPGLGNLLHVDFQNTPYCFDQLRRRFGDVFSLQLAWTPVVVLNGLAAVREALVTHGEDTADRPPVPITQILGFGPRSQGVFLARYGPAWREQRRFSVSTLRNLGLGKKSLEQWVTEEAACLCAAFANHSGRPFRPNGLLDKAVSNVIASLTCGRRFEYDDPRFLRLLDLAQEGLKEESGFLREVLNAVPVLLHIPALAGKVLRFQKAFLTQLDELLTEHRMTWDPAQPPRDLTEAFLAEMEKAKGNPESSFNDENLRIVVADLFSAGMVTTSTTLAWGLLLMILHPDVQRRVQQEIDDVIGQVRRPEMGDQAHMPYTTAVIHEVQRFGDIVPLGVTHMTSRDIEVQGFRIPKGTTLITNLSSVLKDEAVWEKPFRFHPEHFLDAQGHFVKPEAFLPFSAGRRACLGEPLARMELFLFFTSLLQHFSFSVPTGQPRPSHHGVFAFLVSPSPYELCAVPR

[7] = cumulative concentration response curve, no pre-treatment

CC(C[N+](C)(C)C)OC(N)=O (racemic) [BTC, bethanechol]
% Baseline tear production (tear production; 1 hour post administration): 107% | % Baseline tear production (tear production; 4 hours post administration): 117% | change over baseline ([1]; BTC at 30 μM following pre-treatment with Rac-THP at 30 nM): up to 50% | response of EFS-stimulated MPLM strips [1, 7]: concentration-dependent contraction | response of EFS-stimulated MPLM strips ([1]; following pre-treatment with Rac-THP at 30 nM): concentration-dependent relaxation of the isolated MPLM strips back to baseline

CC(C)[N+](C)(CCOC(=O)C1c2ccccc2Oc2ccccc21)C(C)C [Propantheline]
Remaining Percentages (%) 0 min ([2]; human whole blood, 37C): 100.00% | Remaining Percentages (%) 15 min ([2]; human whole blood, 37C): 71.54% | Remaining Percentages (%) 30 min ([2]; human whole blood, 37C): 57.19% | Remaining Percentages (%) 60 min ([2]; human whole blood, 37C): 25.74% | Remaining Percentages (%) 120 min ([2]; human whole blood, 37C): 6.31% | half-life at 5 μM ([2]; human, whole blood): 31 min | Remaining Percentages (%) 0 min ([3]; dog whole blood, 37C): 100.00% | Remaining Percentages (%) 15 min ([3]; dog whole blood, 37C): 91.17% | Remaining Percentages (%) 30 min ([3]; dog whole blood, 37C): 90.30% | Remaining Percentages (%) 60 min ([3]; dog whole blood, 37C): 85.38% | Remaining Percentages (%) 120 min ([3]; dog whole blood, 37C): 62.08% | half-life at 5 μM ([3]; dog, whole blood): 184 min

Mevinolin
Remaining Percentages (%) 0 min [4]: 100.00% | Remaining Percentages (%) 15 min [4]: 9.32% | Remaining Percentages (%) 30 min [4]: 1.68% | Remaining Percentages (%) 60 min [4]: 2.21% | Remaining Percentages (%) 120 min [4]: 2.47% | t1/2 [4]: 4.38 min

OC(CCN1CCCCC1)(c1ccccc1)C1CCCCC1 (racemic) [Rac-THP, racemic trihexyphenidyl]
CLint (CYP2E1): 0.00 µL/min/pmol | t1/2 (CYP2E1; unit not given): ∞ | metabolites detected [5]: metabolite 18 when incubated with microsomes, but additional metabolites 13, 14, and 16 were also observed | Substrates of CYP3A5 (CYP3A5): Rac, R and S | Substrates of CYP2C19 (CYP2C19): Rac, R and S | CLint (CYP2C8): 0.00 µL/min/pmol | t1/2 (CYP2C8; unit not given): ∞ | CLint (CYP2A6): 0.00 µL/min/pmol | t1/2 (CYP2A6; unit not given): ∞ | time spent holding bar, haloperidol-induced catalepsy ([6]; 30 minutes after injection): significantly attenuated haloperidol-induced catalepsy | time spent holding bar, haloperidol-induced catalepsy ([6]; 60 minutes after injection): significantly attenuated haloperidol-induced catalepsy | CLint (CYP2C9): 0.00 µL/min/pmol | t1/2 (CYP2C9; unit not given): ∞ | Substrates of CYP1A2 (CYP1A2): S and Rac | CLint (CYP2B6): 0.00 µL/min/pmol | t1/2 (CYP2B6; unit not given): ∞ | Substrates of CYP3A4 (CYP3A4): Rac, R and S | Substrates of CYP2D6 (CYP2D6): Rac, R and S | response of EFS-stimulated MPLM strips [1, 7]: concentration-dependent relaxation response

O=C(CCCN1CCC(O)(c2ccc(Cl)cc2)CC1)c1ccc(F)cc1 [haloperidol, Haloperidol]
time spent holding bar, haloperidol-induced catalepsy ([6]; 30 minutes after injection): significantly increased the time the rats spend holding the bar | time spent holding bar, haloperidol-induced catalepsy ([6]; 60 minutes after injection): significantly increased the time the rats spend holding the bar
